{FAM} = FAM fluorophore (/36-FAM/)
Key:
a-SMA and SM22a = assay: immunofluorescence of contractile proteins in ligated carotids; assay type: in vivo, mouse; conditions: ligated carotid, in contrast to carotid VSMCs in wild type animals
Procedure: All mice used in this study were cared for under strict compliance with the Partners Institutional Animal Care and Use Committee (IACUC), regulated by the United States Public Health Service (USPHS). Carotid ligations were performed in 10 week old mice. Briefly, animals were anesthetized using intraperitoneal ketamine/xylazine (80 and 12 mg/kg, respectively) followed by a small incision in the neck to expose the carotid artery. Then the left carotid was ligated at the carotid bifurcation level using a 8-0 silk suture. At 21 days mice were sacrificed and carotids were collected for histological analysis. Approximately 98% of wild type mice developed stenotic lesions. Mice that developed thrombosis of the ligated carotid were excluded from the study (−1¬2%). Malatl knockout mice were kindly provided by Dr. David Spector (Cold Spring Harbor, N.Y.). Hdac9 flox/flox/Talgn-cre mice were generated as previously reported (10). Ezh2 fl/fl/ (STOCK Ezh2tm2Sho/J) and Myh11-cre-GFP (B6.Cg-Tg(Myh11-cre,-EGFP)2Mik/J) were crossed to generate smooth muscle cell-Ezh2 deficient mice. All above mice and wild-type mice (C57BL/6J) were purchased from Jackson laboratory. For tissue analysis, animals were euthanized through inhalational isoflurane (Sigma, St, Louis, Mo.) prior to tissue collection. All carotid ligation (left carotid) procedures were performed at 10 weeks of age. All experiments were performed on male and female animals at a 1:1 ratio.
Left and right carotids were cryosectioned using OCT standard protocol and sectioning. The right carotid artery was unligated and served as an internal control. Neoinitima analysis was performed from hematoxylin and eosin (H & E) stained horizontal cross-sections embedded in Optimal Cutting Temperature compound (OCT). Briefly, the distal 0.2 mm of carotid from the ligation suture site were discarded followed by generation of 20 slides (10 pM). Slides 1, 5, 10, and 15 were H&E stained for quantification of neointima. For quantification of the neointima, internal and external elastic lamina perimeters and medial thickness from 4 quadrants were measured and averaged using Image J software from the National Institutes of Health (NIH). Slides 2-4, 6-9, and 11-14 were used for immunofluorescence staining.
Cohorts of 10-week-old wild-type mice were treated with oral administration in drinking water of GSK343 24 hrs before left carotid ligation and following treatment for 3 weeks. GSK343 inhibitor (25 mg) was dissolved in 1 mL of DMSO to obtain a stock solution of 46 mM. Then, 250 ml of drinking water was supplemented with 250 pl of GSK343 stock solution. Control group for was given with equal volumes of sterile water. Bottles containing GSK343 were replaced with fresh water supplied with drug every 3 days. […]

[1] = delivery of fluorescently labeled GapmeR to the vasculature; assay type: in vivo, mouse; conditions: ligated carotid of GapmeR treated mice, not in vehicle and GSK343 treated mice

With “3′-FAM-GapmeR-Malatl: fluorescently labeled GapmeR against MALAT1, GTCACAATGCATTCTA/36-FAM/ (SEQ ID NO: 2) (3' {FAM}, sugars by position and backbone not given here; LNA gapmer)” the “expression of α-SMA in carotid VSMCs” value (a-SMA and SM22a) was “robust expression” and the “detection of 3′-FAM labeled GapmeR in ligated carotid” value [1] was “Detection”.

Reference: US11938129B2, “Methods and compositions for the treatment of vascular disease” (THE GENERAL HOSPITAL CORPORATION, priority 2018, dated 2024)
